# Tests used:
# Assay in all cases: cells
# Parameters in all cases: species or system panel of 482 human cancer cell lines; ATPLite luminescence growth inhibition after treatment, nine-point dilution curve, 482 cancer cell lines, 384-well
# Settings in all cases: 72 h, recommended growth medium
# SKNBE2_AUTONOMIC_GANGLIA = system: SKNBE2_AUTONOMIC_GANGLIA
# Method: (§1) Cells were seeded in recommended growth media in black 384-well tissue culture treated plates at 500 cells per well. Cells were equilibrated in assay plates via centrifugation and placed in incubators for 24 h before treatment. […] Treated assay plates were incubated with compounds for 72 h and subsequently were developed for endpoint analysis using ATPLite. Each compound was assessed using a nine-point dilution curve. Cells were defined as sensitive to a given compound based on GI75 < 2 μM with manual quality control of curve fit. GI75 is defined as a drug concentration that causes a 75% reduction in assay readout relative to dimethyl sulfoxide (DMSO)-treated controls. To identify novel cancer vulnerabilities, we screened a panel of 482 cell lines with a diverse set of metabolic inhibitors. […] Given that SCLC is thought to arise from neuroendocrine cells in the lung[9], we tested the NB-598 sensitivity in a panel of 42 SCLC cell lines. We calculated a quantitative metric of sensitivity for each cell line based on the area under the curve (AUC) of the mu/mu.max curve to more accurately capture the potency and extent of NB-598 effects. […] We categorized the SCLC cell lines as sensitive (5/42), moderate (11/42), and insensitive (26/42) (Fig. 1c and Supplementary Data 2) and focused all subsequent efforts on this indication. […] To further understand the patterns of sensitivity, we conducted RNA sequencing (RNA-Seq; Supplementary Data 3) and proteomic (Supplementary Data 4) characterization of the SCLC panel to identify unbiased expression signatures associated with enhanced NB-598 response (Supplementary Fig. 1 and Supplementary Fig. 2). Given the growing understanding that SCLC tumors can be further subdivided based on the status of lineage-defining transcription factors, ASLC1 and NEUROD1, we specifically investigated NB-598 response as the function of ASCL1 and NEUROD1 expression levels. […] To further dissect the NB-598 response within the ASCL1-high/NEUROD-low subset of 25 cell lines, we identified RNA-Seq and proteomics expression signatures associated with NB
# 2313287_STOMACH = system: 2313287_STOMACH
# Method: as §1
# TE14_OESOPHAGUS = system: TE14_OESOPHAGUS
# Method: as §1
# LK2_LUNG = system: LK2_LUNG
# Method: as §1
# HGC27_STOMACH = system: HGC27_STOMACH
# Method: as §1
# HCC95_LUNG = system: HCC95_LUNG
# Method: as §1
# SNU16_STOMACH = system: SNU16_STOMACH
# Method: as §1
# HCC70_BREAST = system: HCC70_BREAST
# Method: as §1
# TT_OESOPHAGUS = system: TT_OESOPHAGUS
# Method: as §1
# [1] = system: KPNRTBM1_AUTONOMIC_GANGLIA
# Method: as §1
# NCIH810_LUNG = system: NCIH810_LUNG
# Method: as §1
# LU24_LUNG = system: LU24_LUNG
# Method: as §1
# [2] = system: KMS20_HAEMATOPOIETIC_AND_LYMPHOID_TISSUE
# Method: as §1
# [3] = system: AMO1_HAEMATOPOIETIC_AND_LYMPHOID_TISSUE
# Method: as §1
# KURAMOCHI_OVARY = system: KURAMOCHI_OVARY
# Method: as §1
# JHH5_LIVER = system: JHH5_LIVER
# Method: as §1
# [4] = system: CAL33_UPPER_AERODIGESTIVE_TRACT
# Method: as §1
structure (smiles),measurement,setting,value
CCN(C/C=C/C#CC(C)(C)C)Cc1cccc(OCc2cc(-c3ccsc3)cs2)c1 [NB-598],GI50,SKNBE2_AUTONOMIC_GANGLIA,0.0203 µM
same,GI50,2313287_STOMACH,2.19 µM
same,GI50,TE14_OESOPHAGUS,164 µM
same,GI50,LK2_LUNG,0.0224 µM
same,GI50,HGC27_STOMACH,14.8 µM
same,GI50,HCC95_LUNG,0.134 µM
same,GI50,SNU16_STOMACH,0.0273 µM
same,GI50,HCC70_BREAST,16.3 µM
same,GI50,TT_OESOPHAGUS,0.296 µM
same,GI50,[1],3.49 µM
same,GI50,NCIH810_LUNG,0.00733 µM
same,GI50,LU24_LUNG,6.57 µM
same,GI50,[2],6.54 µM
same,GI50,[3],0.032 µM
same,GI50,KURAMOCHI_OVARY,52 µM
same,GI50,JHH5_LIVER,42.7 µM
same,GI50,[4],0.0425 µM

# Reference: article PMC6327044, “A chemical biology screen identifies a vulnerability of neuroendocrine cancer cells to SQLE inhibition” (Nature Communications, 2019)
